Earlier results, collected in patent US6955827B2, “Method of controlling release of antimicrobial agents in chewing gum” (Wm. Wrigley Jr. Company, priority 1997, dated 2005).

Conditions: at 25° C.
In the case of N=C(NCCCCCCNC(=N)NC(=N)Nc1ccc(Cl)cc1)NC(=N)Nc1ccc(Cl)cc1.O=C(O)[C@H](O)[C@@H](O)[C@H](O)[C@H](O)CO.O=C(O)[C@H](O)[C@@H](O)[C@H](O)[C@H](O)CO [Chlorhexidine digluconate, chlorhexidine digluconate], the water solubility is given as 50%.
In the case of Oc1cc(Cl)ccc1Oc1ccc(Cl)cc1Cl [Triclosan, 2,4,4-trichloro-2-hydroxydiphenyl ether], the water solubility is listed as “about 0.05%”.
For CCCCCCc1ccc(O)cc1O [Hexylresorcinol, hexylresorcinol], the water solubility is given as “about 0.05%”.
In the case of CCCCCCCCCCCCCCCC[n+]1ccccc1 [Cetylpyridinium chloride, cetylpyridinium chloride], the water solubility is given as 33%.
